Test results reported in patent US12263248B2, “Compounds and compositions for intracellular delivery of therapeutic agents” (ModernaTX, Inc., priority 2018, dated 2025).
Marks after values point to notes of the source that are not given here.

Key:
sC5b-9 = test: Complement activation in vitro (sC5b-9 levels); type: cell-based; conditions: human cells contacted in vitro
Description: Complement activation assists in the clearance of pathogens from an organism. As it is undesirable that a subject's body recognize a nanoparticle composition as a foreign invader, low complement system activation upon administration of such a composition is preferred. The complex sC5b-9 is a marker for the activation of the complement system. Thus, human cells were contacted in vitro with nanoparticle compositions according to Table 1A and were evaluated for sC5b-9 levels.

[1] = Encapsulation efficiency of RNA (QUANT-IT RIBOGREEN RNA assay); type: physicochemical
Summary of the method: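 RiboGreen fluorescence (ex ~480, em ~520 nm) compared between intact samples and Triton X-100-lysed samples after 15 min at 37 °C in TE buffer, pH 7.5. Percent free RNA is the blank-corrected intact/disrupted ratio.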

[2] = Apparent (surface) pKa of the LNP formulation (TNS assay); type: physicochemical; conditions: for Apparent pKa: Table 3G
Summary of the method: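 Fluorescence of TNS probe added to LNP samples (mRNA 0.04 mg/mL) was read across 21 buffers of pH about 3-12, triplicate per pH. The inflection point of the sigmoidal fluorescence-vs-pH curve, […], gives apparent pKa; method validated in 1× PBS and Tris/sucrose buffer.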

[3] = Residual lipid levels in rat liver and spleen (UPLC-MS); type: in vivo; conditions: for % Lipid Remaining in liver, 48 h: rats, 2 mpk, assuming 300 g rat and 15 g liver
Summary of the method: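 Rats received a single intravenous dose of lipid nanoparticle composition, and liver tissue was later collected to quantify residual lipid. Weighed tissue was homogenized in Milli-Q water (900 μL per 100 mg tissue) using an Omni probe homogenizer. 50 μL aliquots were mixed with 400 μL spiking solution, vortexed, centrifuged, and analyzed by UPLC on a C8 column with positive-mode ESI detection on a Sciex API5500 mass spectrometer.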

hEPO mRNA = test: hEPO expression after intramuscular administration to mice; type: in vivo; conditions: for Lipid/MC3 6 h timepoint / Lipid/MC3 AUC: Table 3I, hEPO; for Fold increase in hEPO concentration relative to MC3: mice, 0.01 mpk, 6 hr time point; for Novel lipid/MC3 expression ratio, 6 hr. time point, i.m. hEPO: relative to MC3 formulation; for Novel lipid/MC3 ratio, 6 hr. timepoint, i.m. hEPO: relative to MC3, Table 3G
Description: The expression of hEPO and cytokine induction in mice intravenously administered a nanoparticle composition at a dose of 0.5 mpk were measured at 3, 6, and 24 hours. […] The expression of hEPO in mice intramuscularly administered a nanoparticle composition from Table 1B at a dose of 0.01 mpk were measured at 3, 6, and 24 hours.
Blood collection and analysis for hEPO. Blood was collected from mice or rats via the tail vein and hEPO concentrations were determined using a hEPO ELISA assay.

luciferase mRNA = test: Luciferase expression after subcutaneous administration to mice; type: in vivo, female CD-1 mice; conditions: for Novel lipid/MC3 expression ratio, 6 hr. time point, s.c. Luc 0.5 mpk / Novel lipid/MC3 expression ratio, s.c. Luc 0.5 mpk (AUC): relative to MC3; for Novel lipid/MC3 expression ratio, 6 hr. time point, s.c. Luc 0.5 mpk / Novel lipid/MC3 expression ratio, s.c. Luc 0.5 mpk (AUC) / Lipid/MC3 AUC ratio / AUC (luciferase expression): 0.5 mpk; for Lipid/MC3 AUC ratio: luciferase; for AUC (luciferase expression): whole body BLI; for Novel lipid/MC3 ratio, s.c. Luc 6 hr.: relative to MC3, Table 3G
Summary of the method: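 Female CD-1 mice given luciferase mRNA in lipid nanoparticle formulations subcutaneously at 0.5 mpk. Expression read by whole-body bioluminescence imaging at 3, 6 and 24 h, with ex vivo liver, spleen and injection-site luminescence at 24 h.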

[4] = lipid nanoparticle, ±SD within one assay run (Table 37)
[5] = Table 1D, for subcutaneous administration, # formulated with hEPO mRNA
[6] = Table 1B, formulated with hEPO mRNA
[7] = Table 1E, compositions for subcutaneous administration
[8] = Table 1C, compositions for subcutaneous administration

Row | Structure (SMILES) | EE (%) ([1]; Table 1A) | pKa ([2]; Table 1A) | % EE [1, 5] [%] | Fold increase in hEPO concentration relative to MC3 (hEPO mRNA) | EE (%) [1, 6] [%] | % EE [1, 7] [%] | Novel lipid/MC3 expression ratio, 6 hr. time point, s.c. Luc 0.5 mpk (luciferase mRNA) | other results
1 | CCCCC/C=C\C/C=C\CCCCCCCCN(CCO)CCCCCCCC(=O)OC(CCCCCCCC)CCCCCCCC [Compound 6, Heptadecan-9-yl 8-((2-hydroxyethyl)((9Z,12Z)-octadeca-9,12-dien-1-yl)amino)octanoate] | 97.60 | 6.32 | – | – | – | – | – | Fold increase in sC5b-9 levels versus saline (sC5b-9): 1.39; sC5b-9 levels relative to saline (sC5b-9; in words): somewhat increase; % Encapsulation [1, 4]: 97.6 ± 1.2%; EE ([1]; lipid:DSPC:Chol:PEG-DMG (50:10:38.5:1.5), hEPO mRNA): 97.84%; pKa [2, 4]: 6.32 ± 0.05
2 | CCCCCCCCC(C)OC(=O)CCCCCCCN(CCO)CCCCCCCC(=O)OC(CCCCCCCC)CCCCCCCC (stereo not drawn) [Compound 48, decan-2-yl 8-((8-(heptadecan-9-yloxy)-8-oxooctyl)(2-hydroxyethyl)amino)octanoate] | 96.55 | 6.68 | 96.2 | – | – | – | – | % lipid remaining in liver after 48 hours ([3]; liver, 48 hours): 11.4%; % Lipid Remaining in liver, 48 h [3]: 7.22%; Lipid/MC3 6 h timepoint (hEPO mRNA): 8.2; Lipid/MC3 AUC (hEPO mRNA): 7.5; EE ([1]; nanoparticle composition with hEPO mRNA (Table 30)): 91.92%
3 | CCCCCCCCC(CC)OC(=O)CCCCCCCN(CCO)CCCCCCCC(=O)OC(CCCCCCCC)CCCCCCCC (stereo not drawn) [Compound 49, heptadecan-9-yl 8-((2-hydroxyethyl)(8-oxo-8-(undecan-3-yloxy)octyl)amino)octanoate] | 89.52 | 6.52 | 96.2 | – | – | – | – | % Lipid Remaining in liver, 48 h [3]: 12.6%; Lipid/MC3 6 h timepoint (hEPO mRNA): 11.0; Lipid/MC3 AUC (hEPO mRNA): 9.9
4 | CCCCCCCCC(CCC)OC(=O)CCCCCCCN(CCO)CCCCCCCC(=O)OC(CCCCCCCC)CCCCCCCC (stereo not drawn) [Compound 50, dodecan-4-yl 8-((8-(heptadecan-9-yloxy)-8-oxooctyl)(2-hydroxyethyl)amino)octanoate] | 97.33 | 6.42 | – | – | – | – | – | % Lipid Remaining in liver, 48 h [3]: 15.9%
5 | CCCC/C=C\CCC(CC/C=C\CCCC)OC(=O)CCCCCCCN(CCO)CCCCCCCC(=O)OCCCCCCCCC [Compound 60, (5Z,12Z)-Heptadeca-5,12-dien-9-yl 8-((2-hydroxyethyl)(8-(nonyloxy)-8-oxooctyl)amino)octanoate] | 97.6 | 6.73 | 93.0 | 11.2 | 95.20 | 88 | 1.72 | Novel lipid/MC3 expression ratio, 6 hr. time point, i.m. hEPO (hEPO mRNA): 11.2
6 | CCCCCCCCCOC(=O)CCCCCCCN(CCCCCCCC(=O)OC(CCCCCCCC)CCCCCCCC)CCCNC(C)=O [Compound 108, Heptadecan-9-yl 8-((3-acetamidopropyl)(8-(nonyloxy)-8-oxooctyl)amino)octanoate] | 96 | 7.17 | – | 3.7 | 95.38 | 96 | 0.22 | –
7 | CCCCCCCCCOC(=O)CCCCCCCN(CCCCCCCC(=O)OC(CCCCCCCC)CCCCCCCC)CCCNS(C)(=O)=O [Compound 109, Heptadecan-9-yl 8-((3-(methylsulfonamido)propyl)(8-(nonyloxy)-8-oxooctyl)amino)octanoate] | 98.6 | 6.78 | – | 5.3 | 98.29 | 98 | 0.49 | –
8 | CCCCCCCCCOC(=O)CCCCCCCN(CCCCCCCC(=O)OC(CCCCCCCC)CCCCCCCC)CCCNC(=O)N(C)C [Compound 110, Heptadecan-9-yl 8-((3-(3,3-dimethylureido)propyl)(8-(nonyloxy)-8-oxooctyl)amino)octanoate] | 91.9 | 8.03 | – | 1.2 | 92.39 | – | – | Novel lipid/MC3 ratio, 6 hr. timepoint, i.m. hEPO (hEPO mRNA): 1.2; % EE [1, 8]: 91.9%; Novel lipid/MC3 expression ratio, s.c. Luc 0.5 mpk (AUC) (luciferase mRNA): (AUC: 0.76); Lipid/MC3 AUC ratio (luciferase mRNA): 0.76; AUC (luciferase expression) (luciferase mRNA): 1.2968E+10 (p/s) * h; Novel lipid/MC3 ratio, s.c. Luc 6 hr. (luciferase mRNA): 0.78; Apparent pKa [2]: 8.03
9 | CCCCCCCCCOC(=O)CCCCCCCN(CCCCCCCC(=O)OC(CCCCCCCC)CCCCCCCC)CCCNC(=S)N(C)C [Compound 111, Heptadecan-9-yl 8-((3-(3,3-dimethylthioureido)propyl)(8-(nonyloxy)-8-oxooctyl)amino)octanoate] | 76.8 | 7.13 | 90.9 | 10.6 | 91.23 | 88 | 1.16 | Novel lipid/MC3 expression ratio, 6 hr. time point, i.m. hEPO (hEPO mRNA): 10.6
10 | CCCCCCCCCOC(=O)CCCCCCCN(CCCCCCCC(=O)OC(CCCCCCCC)CCCCCCCC)CCCNC(=O)NC [Compound 112, Heptadecan-9-yl 8-((3-(3-methylureido)propyl)(8-(nonyloxy)-8-oxooctyl)amino)octanoate] | 99.0 | 7.78 | – | 1.6 | 96.40 | – | – | Novel lipid/MC3 ratio, 6 hr. timepoint, i.m. hEPO (hEPO mRNA): 1.6; % EE [1, 8]: 99.0%; Novel lipid/MC3 expression ratio, s.c. Luc 0.5 mpk (AUC) (luciferase mRNA): (AUC: 1.19); Lipid/MC3 AUC ratio (luciferase mRNA): 1.19; AUC (luciferase expression) (luciferase mRNA): 2.0339E+10 (p/s) * h; Novel lipid/MC3 ratio, s.c. Luc 6 hr. (luciferase mRNA): 1.33; Apparent pKa [2]: 7.78
11 | CCCCCCCCC(C)OC(=O)CCCCCN(CCO)CCCCCCCC(=O)OC(CCCCCCCC)CCCCCCCC (stereo not drawn) [Compound 122, Heptadecan-9-yl 8-((6-(decan-2-yloxy)-6-oxohexyl)(2-hydroxyethyl)amino)octanoate] | 98.2 | 6.83 | – | 10.7 | 96.27 | – | – | Novel lipid/MC3 ratio, 6 hr. timepoint, i.m. hEPO (hEPO mRNA): 10.7; Novel lipid/MC3 expression ratio, 6 hr. time point, i.m. hEPO (hEPO mRNA): 10.7; % EE [1, 8]: 94.8%; Novel lipid/MC3 expression ratio, s.c. Luc 0.5 mpk (AUC) (luciferase mRNA): (AUC: 3.42); Lipid/MC3 AUC ratio (luciferase mRNA): 3.42; AUC (luciferase expression) (luciferase mRNA): 5.8576E+10 (p/s) * h; Novel lipid/MC3 ratio, s.c. Luc 6 hr. (luciferase mRNA): 4.12; Apparent pKa [2]: 6.83
12 | CCCCCCCCCOC(=O)CCCCCCCN(CCO)CCCCCCCCCC(=O)OC(CCCCCC)CCCCCC [Compound 147, Tridecan-7-yl 10-((2-hydroxyethyl)(8-(nonyloxy)-8-oxooctyl)amino)decanoate] | 88.31 | 6.66 | – | – | 91.0 | – | – | % dose remaining, liver, 24 h ([3]; Table 19B, liver, 24 h): 0.00%
